Reference: patent US5013756A, “Catechol derivatives, a process of preparation thereof, and therapeutical compositions containing the same” (priority 1985, dated 1991)

Columns and labels:
soybean lipoxygenase = target: T1, soybean lipoxygenase (Glycine max, UniProt P08170); test: In vitro screening of compounds as potential inhibitors of soybean lipoxygenase (spectrophotometric assay, 15-HPETE at 236 nm); assay type: biochemical; conditions: pH 9.00, 10^-4 M arachidonic acid, 90 min, room temperature; for IC50: IC50 (concentration of 50% inhibition)
T1 sequence (P08170 1-839): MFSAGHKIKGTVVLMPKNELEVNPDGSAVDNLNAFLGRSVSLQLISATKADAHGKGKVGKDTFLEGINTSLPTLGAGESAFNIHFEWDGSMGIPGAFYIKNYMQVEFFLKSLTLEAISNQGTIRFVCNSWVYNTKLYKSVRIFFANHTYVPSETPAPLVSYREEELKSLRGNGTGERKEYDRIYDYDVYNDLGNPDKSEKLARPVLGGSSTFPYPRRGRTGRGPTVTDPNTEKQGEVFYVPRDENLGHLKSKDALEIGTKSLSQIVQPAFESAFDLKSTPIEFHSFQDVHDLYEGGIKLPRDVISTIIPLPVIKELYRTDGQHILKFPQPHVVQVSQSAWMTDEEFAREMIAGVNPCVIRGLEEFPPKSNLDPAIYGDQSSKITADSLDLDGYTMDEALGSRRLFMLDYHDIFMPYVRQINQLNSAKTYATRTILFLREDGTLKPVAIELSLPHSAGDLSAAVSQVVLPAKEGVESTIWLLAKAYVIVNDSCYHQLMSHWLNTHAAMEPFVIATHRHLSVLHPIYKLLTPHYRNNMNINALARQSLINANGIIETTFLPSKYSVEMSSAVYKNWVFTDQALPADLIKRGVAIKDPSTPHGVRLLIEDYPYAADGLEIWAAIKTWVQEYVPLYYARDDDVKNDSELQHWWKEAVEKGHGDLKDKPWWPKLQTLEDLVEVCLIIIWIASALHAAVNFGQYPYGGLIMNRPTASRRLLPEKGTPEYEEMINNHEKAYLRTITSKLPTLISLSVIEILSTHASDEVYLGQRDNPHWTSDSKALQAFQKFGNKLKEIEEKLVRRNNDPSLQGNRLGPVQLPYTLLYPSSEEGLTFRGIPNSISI
Experimental: A spectrophotometric method has been developed to determine the enzyme activity according to Corey E.J. et al. (J. Amer. Chem. Soc, 104, 1750-1752; 1982). In a final volume of 1.8 ml was mixed 0.2 M of aerated Borax buffer pH =9.00 with 500 units of soybean lipoxygenase. When inhibitors were tested, they were added in 0.6 ml at final concentrations ranging from 10^-3 M to 10^-8 M followed by a preincubation of 10 minutes at room temperature. The reaction was initiated by 10^-4 M arachidonic acid. Following incubation at room temperature for 90 minutes, 15-HPETE was determined by absorbance measurements at 236 nm.
This method was validated with known inhibitors of lipoxygenase. For each test substance a control was included with boiled lipoxygenase in order to take into account any absorption of the compound at the wavelength used.

xanthine oxidase = xanthine oxidase (Bos taurus, UniProt P80457); test: In vitro screening of compounds as potential inhibitors of xanthine oxidase; assay type: biochemical; conditions: xanthine oxidase 0.01 units/ml, xanthine 5.10^-5 M, pH 7.4
Excerpt: A unit of activity was defined as a change of 0.001 units/minute.

[1] = target: T2, cyclooxygenase (human platelets microsomes) (Homo sapiens, UniProt P23219); test: Cycloxygenase inhibition in human platelets microsomes; assay type: biochemical; conditions: cyclooxygenase (PGE2/TxB2), pH 7.9, 37° C.
T2 construct: human platelets microsomes; from tissue; host or cells: human platelet microsomes (microsomal powder)
Experimental: The enzymatic assay was carried out in silanized glassware according to the procedure of P. Ho, P. Walters and H, Sullivan (Prostaglandins 12, 951 1976). The reaction mixture containing 50 mM Tris HCl buffer, pH 7.9, 5mM 2-Tryptophan, […] methemoglobin, 0.2 mg of microsomal powder, and the test compound in a total volume of 0.2 ml was incubated at 37° C. for 5 minutes before the addition of 10 μl of 20 μM^14 C arachidonic acid (0.08 μCI). After 5 minute incubation, the reaction was terminated by the addition of 10 μl of 1M citric acid.
The mixture was extracted four times with 0.5 ml of anhydrous diethyl ether and dried with sodium sulphate. The residue was resuspended in approximately 40 μl of ether and submitted to chromatography on silica gel plates. The elution system consisted of diethyl ether/methanol/acetic acid (90:1:2). The RF values were measured relative to arachidonic acid. Thin layer chromatography plates (TLC) were exposed on LKB ultrafilm for about 24 hours. Partial identification of the spots were carried out by running standards (PGA2, PGB2, PGE2, PGF2c, PXB2, arachidonic acid) in the same solvent system. Quantitative results were obtained by scanning the developed film with a transmission densitometer (EC Apparatus 910) interfaced with a Hewlett Packard 3390A integrator.
The activity of the substances of the cyclooxygenase is quantified by the 2 spots corresponding to PGE2 and TxB2 (ratio PGE2 /TxB2).

[2] = target: T3, 12-lipoxygenase (human leucocytes) (Homo sapiens, UniProt P18054); test: Experiment No. 1: inhibition of 12-lipoxygenase in human leucocytes stimulated by ionophore (12-HETE); assay type: cell-based; conditions: Experiment No. 1, 12-HETE, ionophore A23187 alone
T3 construct: human leucocytic lipoxygenase; endogenous in cells; host or cells: human (polynuclear) leucocytes
T3 sequence (P18054 1-663): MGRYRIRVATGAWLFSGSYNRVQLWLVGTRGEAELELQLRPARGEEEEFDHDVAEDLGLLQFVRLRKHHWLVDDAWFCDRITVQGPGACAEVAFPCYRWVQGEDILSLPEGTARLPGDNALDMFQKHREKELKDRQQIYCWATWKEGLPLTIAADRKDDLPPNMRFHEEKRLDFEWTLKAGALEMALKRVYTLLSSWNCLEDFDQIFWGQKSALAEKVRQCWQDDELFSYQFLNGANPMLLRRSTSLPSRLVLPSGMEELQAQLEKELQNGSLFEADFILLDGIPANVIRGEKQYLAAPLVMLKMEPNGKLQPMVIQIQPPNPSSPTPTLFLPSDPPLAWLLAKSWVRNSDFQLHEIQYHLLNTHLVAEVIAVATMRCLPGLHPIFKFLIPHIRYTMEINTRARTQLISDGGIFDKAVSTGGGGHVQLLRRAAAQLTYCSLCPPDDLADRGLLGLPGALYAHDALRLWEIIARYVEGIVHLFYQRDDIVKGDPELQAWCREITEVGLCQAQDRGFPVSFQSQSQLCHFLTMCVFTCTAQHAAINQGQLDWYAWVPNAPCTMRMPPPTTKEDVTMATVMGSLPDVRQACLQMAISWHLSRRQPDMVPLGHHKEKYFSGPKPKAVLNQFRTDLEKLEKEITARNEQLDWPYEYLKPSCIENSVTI
Experimental: (§1) (a) Inhibition on 5- and 12- lipoxygenases human polynuclear
(§2) Protocol for experiment No. 1:
(§3) 2. Stimulation with 1 μg ionophore (A23187)/ml for 4 minutes.
(§4) 3. Stopping of the incubation with 1 volume of methanol.
(§5) 4. Analysis by RP-HPLC, colomn C18, 5 μm.
(§6) 5. Measurement of the height of the peaks and comparison with the internal standard (PGB2).

[3] = target: T4, 5-lipoxygenase (human leucocytes) (Homo sapiens, UniProt P09917); test: Experiment No. 1: inhibition of 5-lipoxygenase in human leucocytes stimulated by ionophore (5-HETE, LTB4); assay type: cell-based; conditions: Experiment No. 1, 5-HETE, ionophore A23187 alone
T4 construct: human leucocytic lipoxygenase; endogenous in cells; host or cells: human (polynuclear) leucocytes
T4 sequence (P09917 1-674): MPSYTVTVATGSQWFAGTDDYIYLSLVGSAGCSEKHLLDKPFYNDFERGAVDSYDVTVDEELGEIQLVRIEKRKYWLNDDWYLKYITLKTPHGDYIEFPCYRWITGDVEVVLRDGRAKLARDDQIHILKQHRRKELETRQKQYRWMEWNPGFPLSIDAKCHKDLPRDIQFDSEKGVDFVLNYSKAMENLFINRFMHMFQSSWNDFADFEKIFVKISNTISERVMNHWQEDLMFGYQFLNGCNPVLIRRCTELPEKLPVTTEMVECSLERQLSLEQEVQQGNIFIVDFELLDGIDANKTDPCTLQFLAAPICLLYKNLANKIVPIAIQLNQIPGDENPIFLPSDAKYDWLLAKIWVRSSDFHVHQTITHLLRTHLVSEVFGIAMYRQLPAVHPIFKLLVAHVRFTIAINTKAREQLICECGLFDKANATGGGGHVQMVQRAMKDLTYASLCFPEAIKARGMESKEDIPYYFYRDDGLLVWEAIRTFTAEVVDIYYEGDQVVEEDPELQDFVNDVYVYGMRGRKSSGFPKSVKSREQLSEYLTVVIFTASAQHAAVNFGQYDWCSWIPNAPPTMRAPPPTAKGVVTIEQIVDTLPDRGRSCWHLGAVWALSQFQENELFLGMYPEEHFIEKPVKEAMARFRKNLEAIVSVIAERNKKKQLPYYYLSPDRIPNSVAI
Experimental: as §1, §2, §3, §4, §5, §6

[4] = target: T4, 5-lipoxygenase (human leucocytes); test: Experiment No. 2: inhibition of 5-lipoxygenase in human leucocytes stimulated by ionophore and arachidonic acid (5-HETE, LTB4); assay type: cell-based; conditions: Experiment No. 2, LTB4, ionophore A23187 and arachidonic acid; read-out: IC50 LTB4 (converted)
Experimental: (§7) (b) Inhibition on 5-, 12- and 15- lipoxygenases human polynuclear
(§8) Protocol for experiment No. 2:
(§9) 2. Stimulation with 10 μg of arachidonic acid and 1 μg of ionophore (A23187)/ml for 4 minutes.
(§10) 3. Stopping of the incubation with 1 volume of methanol and analysis by RP-HPLC.
(§11) 4. Measurement of the height of the peaks and comparison with the internal standard (PGB2).
(§12) It will be noted that in experiment No. 1, the leucocytes have been stimulated by the ionophore alone whereas in experiment No. 2, the cells have been stimulated with ionophore and arachidonic acid.

[5] = target: T3, 12-lipoxygenase (human leucocytes); test: Experiment No. 2: inhibition of 12-lipoxygenase in human leucocytes stimulated by ionophore and arachidonic acid (12-HETE); assay type: cell-based; conditions: Experiment No. 2, 12-HETE, ionophore A23187 and arachidonic acid
Experimental: as §7, §8, §9, §10, §11, §12

HHT (human leucocytes) = test: Experiment No. 2: HHT formation in human leucocytes stimulated by ionophore and arachidonic acid; assay type: cell-based; conditions: Leucocyte, ionophore A23187 and arachidonic acid
Experimental: as §7, §8, §9, §10, §11

[6] = target: T5, 15-lipoxygenase (human leucocytes) (Homo sapiens, UniProt P16050); test: Experiment No. 2: inhibition of 15-lipoxygenase in human leucocytes stimulated by ionophore and arachidonic acid (15-HETE); assay type: cell-based; conditions: Experiment No. 2, 15-HETE, ionophore A23187 and arachidonic acid
T5 construct: endogenous in cells; host or cells: human (polynuclear) leucocytes
T5 sequence (P16050 1-662): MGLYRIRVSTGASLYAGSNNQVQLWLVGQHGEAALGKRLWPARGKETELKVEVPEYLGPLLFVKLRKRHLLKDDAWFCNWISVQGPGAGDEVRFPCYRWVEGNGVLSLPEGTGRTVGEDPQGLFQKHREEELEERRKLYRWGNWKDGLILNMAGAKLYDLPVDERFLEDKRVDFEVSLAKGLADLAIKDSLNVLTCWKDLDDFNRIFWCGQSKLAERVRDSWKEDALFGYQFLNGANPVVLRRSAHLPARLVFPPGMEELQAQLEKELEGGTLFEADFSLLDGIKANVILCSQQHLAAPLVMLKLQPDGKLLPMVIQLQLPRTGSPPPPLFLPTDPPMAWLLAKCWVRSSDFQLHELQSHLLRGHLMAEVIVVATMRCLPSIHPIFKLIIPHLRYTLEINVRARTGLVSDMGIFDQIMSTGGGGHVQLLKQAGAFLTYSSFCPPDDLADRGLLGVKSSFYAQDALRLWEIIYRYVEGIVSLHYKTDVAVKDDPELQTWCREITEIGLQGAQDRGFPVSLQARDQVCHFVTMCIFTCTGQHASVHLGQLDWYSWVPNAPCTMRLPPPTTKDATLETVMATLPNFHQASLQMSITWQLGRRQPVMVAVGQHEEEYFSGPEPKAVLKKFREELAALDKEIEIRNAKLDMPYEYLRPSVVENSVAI
Experimental: as §7, §8, §9, §10, §11, §12

T2 sequence (P23219 24-599): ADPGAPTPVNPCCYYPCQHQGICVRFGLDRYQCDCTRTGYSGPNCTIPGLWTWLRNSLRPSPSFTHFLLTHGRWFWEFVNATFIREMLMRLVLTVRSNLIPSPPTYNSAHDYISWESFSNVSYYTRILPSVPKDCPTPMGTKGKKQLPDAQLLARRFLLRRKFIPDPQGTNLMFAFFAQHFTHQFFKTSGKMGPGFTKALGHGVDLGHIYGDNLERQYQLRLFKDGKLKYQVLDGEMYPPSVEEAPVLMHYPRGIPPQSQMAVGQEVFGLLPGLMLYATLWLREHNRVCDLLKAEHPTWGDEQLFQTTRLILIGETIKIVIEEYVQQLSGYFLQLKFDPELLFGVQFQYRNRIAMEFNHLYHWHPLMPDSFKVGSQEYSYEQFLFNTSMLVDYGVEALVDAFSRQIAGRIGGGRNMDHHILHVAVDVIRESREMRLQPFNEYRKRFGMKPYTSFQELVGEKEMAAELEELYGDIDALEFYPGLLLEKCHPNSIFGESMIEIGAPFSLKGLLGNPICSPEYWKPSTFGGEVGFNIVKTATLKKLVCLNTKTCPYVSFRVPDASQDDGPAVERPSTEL
xanthine oxidase, sequence (P80457 whole entry): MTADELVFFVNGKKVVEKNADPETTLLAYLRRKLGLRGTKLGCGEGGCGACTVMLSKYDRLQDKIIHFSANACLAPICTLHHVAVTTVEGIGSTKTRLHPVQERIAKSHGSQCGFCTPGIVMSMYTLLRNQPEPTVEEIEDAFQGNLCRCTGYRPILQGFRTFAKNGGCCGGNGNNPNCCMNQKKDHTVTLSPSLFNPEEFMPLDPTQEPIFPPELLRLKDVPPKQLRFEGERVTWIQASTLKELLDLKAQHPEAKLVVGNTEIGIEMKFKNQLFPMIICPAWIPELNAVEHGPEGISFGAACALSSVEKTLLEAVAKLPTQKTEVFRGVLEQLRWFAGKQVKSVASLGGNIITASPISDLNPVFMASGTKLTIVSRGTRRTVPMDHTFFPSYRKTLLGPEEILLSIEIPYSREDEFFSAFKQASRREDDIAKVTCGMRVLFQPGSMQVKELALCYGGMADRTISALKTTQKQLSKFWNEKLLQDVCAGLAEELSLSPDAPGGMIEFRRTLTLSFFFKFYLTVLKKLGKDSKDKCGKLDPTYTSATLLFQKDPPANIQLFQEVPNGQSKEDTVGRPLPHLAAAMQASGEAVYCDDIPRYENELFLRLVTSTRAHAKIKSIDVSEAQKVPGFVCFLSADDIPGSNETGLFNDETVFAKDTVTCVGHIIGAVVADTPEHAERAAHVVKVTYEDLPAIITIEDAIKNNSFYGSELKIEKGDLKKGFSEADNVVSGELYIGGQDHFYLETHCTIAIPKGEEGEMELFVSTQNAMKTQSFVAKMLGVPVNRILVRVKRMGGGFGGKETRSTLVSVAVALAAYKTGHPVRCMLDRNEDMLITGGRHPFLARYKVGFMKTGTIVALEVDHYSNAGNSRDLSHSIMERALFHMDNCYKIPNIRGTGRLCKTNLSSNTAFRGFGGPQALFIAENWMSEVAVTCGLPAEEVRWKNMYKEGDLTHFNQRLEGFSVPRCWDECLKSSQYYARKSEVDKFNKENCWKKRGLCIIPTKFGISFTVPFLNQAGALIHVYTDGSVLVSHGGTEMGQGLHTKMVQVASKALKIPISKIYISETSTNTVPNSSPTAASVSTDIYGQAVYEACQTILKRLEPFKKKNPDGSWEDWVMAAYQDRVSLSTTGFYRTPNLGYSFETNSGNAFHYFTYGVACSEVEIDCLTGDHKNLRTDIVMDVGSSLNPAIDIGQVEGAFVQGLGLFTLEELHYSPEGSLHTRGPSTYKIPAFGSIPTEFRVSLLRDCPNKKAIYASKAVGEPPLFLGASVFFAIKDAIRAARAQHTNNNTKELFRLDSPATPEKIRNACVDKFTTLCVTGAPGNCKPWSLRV

`CCC(C)CSc1ccc(O)c(O)c1` (stereo not drawn) [drawing 7] was tested, and the IC50 (soybean lipoxygenase) was 104 µM.

`CCC(C)CSc1ccc(O)c(O)c1` (stereo not drawn) [drawing 28] was tested, and the IC50 (xanthine oxidase) was 511 µM.

For `Oc1ccc(S)cc1O` [drawing 6], the IC50 (soybean lipoxygenase) was 93 µM.

`Nc1nc2ncc(CNc3ccc(C(=O)N[C@@H](CCC(=O)O)C(=O)O)cc3)nc2c(=O)[nH]1` [Folic acid, reference compound] gave an IC50 (xanthine oxidase) of 0.676 µM.

For `S=C(N=Nc1ccccc1)NNc1ccccc1` [Diphenylthiocarbazone, reference compound], the IC50 (soybean lipoxygenase) was 1.61 µM.

With `CCCCCCC(C)Sc1ccc(O)c(O)c1` (stereo not drawn) [drawing 23] the IC50 [1] was 3.46 µM.

With `N=C(N)Sc1ccc(O)c(O)c1` the “IC50 (concentration of 50% inhibition)” value (soybean lipoxygenase) was “Not active”.

`CCC(C)CSc1ccc(O)c(O)c1` (stereo not drawn) [drawing 21] gave an IC50 [1] of 4.31 µM.

`Oc1ccc(S)cc1O` [drawing 31] gave an IC50 [2] of 2 µM and an IC50 [3] of 2 µM.

`Oc1ccc(S)cc1O` [drawing 20] was tested, and the IC50 [1] was 9.23 µM.

`CCC(C)CSc1ccc(O)c(O)c1` (stereo not drawn) [drawing 33] gave an IC50 [4] of 3 µM, an IC50 [5] of 10 µM and an IC50 (HHT (human leucocytes)) of 50 µM. The IC50 [6] was 10 µM.
